# Reference: US10456390B2, “Combinations comprising MABA compounds and corticosteroids” (ALMIRALL, S.A., priority 2013, dated 2019)
# Tested on: IL-8 secretion induced by LPS in peripheral blood neutrophils
# Experiment: Inhibition of IL-8 secretion induced by LPS in isolated peripheral blood neutrophils (ELISA)
# Type: cell-based
# Conditions: Homo sapiens, Neutrophil; for inhibition at 10 pM: single agent at 0.01 nM
# Description: 5 Healthy subjects were included for leukocyte experiments. Pulmonary function tests (forced spirometry) and arterial blood gas measurements were performed during the days prior to sample.
# Neutrophils were isolated from peripheral blood of healthy volunteers according to standard procedures established in the laboratory (Milara J et al., Respiration 2012; 83, 147-158).
# Isolated neutrophils were incubated with different drugs (MABA compound, mometasone or fluticasone) or vehicle for 30 minutes before incubation with LPS (1 mcg/mL) (Lipopolysaccharide, a representative stimulus as inflammatory mediator) for 6 hours in standard cell culture conditions (37° C. and 5% CO2). Supernatant were collected to measure IL-8 (the inflammatory marker).
# IL-8 (Interleukin-8) was determined by ELISA according to the standard procedure.
# Data was presented as mean±SEM (see FIG. 1 and FIG. 2). Statistical analysis of results was carried out by analysis of variance (ANOVA) followed by Bonferroni test, by Student's t test, or by non-parametric tests as appropriate (GraphPad Software Inc, San Diego, Calif., USA). Significance was accepted when P<0.05.
# [1] = 30 min pre-incubation, LPS 1 mcg/mL 6 h, neutrophils from healthy subjects (5 volunteers in triplicate), Table 1
Structure (SMILES),"inhibition at 0.0001 µM (single agent at 0.1 nM, LPS-induced IL-8 secretion, neutrophils from healthy subjects, Table 2) [%]",inhibition at 10 pM [1] [%],"inhibition at 10 pM (LPS-induced IL-8 secretion, neutrophils from healthy subjects, Table 2) [%]"
"C[C@@H]1C[C@H]2[C@@H]3C[C@H](F)C4=CC(=O)C=C[C@]4(C)[C@@]3(F)[C@@H](O)C[C@]2(C)[C@@]1(O)C(=O)SCF [Fluticasone, fluticasone]",10.2,,
"CN(CCCn1nnc2cc(CNC[C@H](O)c3ccc(O)c4[nH]c(=O)ccc34)ccc21)[C@H]1CC[C@H](OC(=O)C(O)(c2cccs2)c2cccs2)CC1 [Cpd 2, Trans-4-[{3-[5-({[(2R)-2-hydroxy-2-(8-hydroxy-2-oxo-1,2-dihydroquinolin-5-yl)ethyl]amino}methyl)-1H-1,2,3-benzotriazol-1-yl]propyl}(methyl)amino]cyclohexyl hydroxy(di-2-thienyl)acetate]",,4.17,4.17
"C[C@@H]1C[C@H]2[C@@H]3CCC4=CC(=O)C=C[C@]4(C)[C@@]3(Cl)[C@@H](O)C[C@]2(C)[C@@]1(O)C(=O)CCl [Mometasone, mometasone]",,2.85,
